According to ChEMBL document CHEMBL4813933, “Discovery of Thanafactin A, a Linear, Proline-Containing Octalipopeptide from Pseudomonas sp. SH-C52, Motivated by Genome Mining” (J Nat Prod, 2021):
Activity calls are given as the source filed them.

Experiments:
[1] = target: T1, Cathepsin K (Homo sapiens) (UniProt P43235); test: Inhibition of human cathepsin K at 10 uM using Z-Leu-Arg-AMC as substrate incubated for 60 mins by fluorometric assay
T1 sequence (whole entry): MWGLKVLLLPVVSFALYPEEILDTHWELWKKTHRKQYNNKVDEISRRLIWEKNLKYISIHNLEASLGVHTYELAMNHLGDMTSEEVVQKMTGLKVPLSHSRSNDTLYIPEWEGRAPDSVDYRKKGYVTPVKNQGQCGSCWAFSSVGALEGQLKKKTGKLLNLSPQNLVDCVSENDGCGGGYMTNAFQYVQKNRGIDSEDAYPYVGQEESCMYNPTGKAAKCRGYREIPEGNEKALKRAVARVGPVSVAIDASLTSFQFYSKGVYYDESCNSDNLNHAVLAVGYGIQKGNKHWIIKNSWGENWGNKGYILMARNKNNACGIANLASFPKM

[2] = system: Chromobacterium violaceum; test: Inhibition of quorum sensing system in Chromobacterium violaceum CV026 assessed as reduction in swarming motility at 1 mg/ml measured after 1 hr
Staphylococcus aureus = test: Inhibition of quorum sensing system in Staphylococcus aureus PC322 assessed as reduction in swarming motility at 1 mg/ml measured after 1 hr

Measured: inhibition

CCCCCCC[C@@H](O)CC(=O)N[C@@H](C(=O)N[C@H](C)C(=O)N[C@H](CCC(N)=O)C(=O)N[C@@H](C)C(=O)N[C@@H](C(=O)N[C@@H](C)C(=O)N1CCC[C@H]1C(=O)N[C@H](C(=O)O)[C@@H](C)O)C(C)C)C(C)C
inactive: all assays above
